From US5521159A, “Partially modified and retro-inverted tetrapeptides analogues of C-reactive protein fragments” (Italfarmaco S.p.A., priority 1992, dated 1996)

Columns and labels:
murine splenocytes = experiment: Stimulation of in vitro IFN-.tau. production by murine splenocytes (ELISA); type: cell-based, BALB/C mice; settings: for IFN-.tau. production, Stimulation index / IFN-.tau. production, U/ml: 24 hours; for IFN-.tau. production, Stimulation index: with respect to untreated cells; for IFN-.tau. production, U/ml: control 31 (Ex.1, Ex.2), 41 (Ex.3)
Description: Stimulation of in vitro IFN-.tau. production by murine splenocytes
The splenic cells were obtained from spleen of BALB/C mice as single cells suspension. The splenocytes thus obtained were resuspended in RPMI 1640 culture medium (Flow Lab., Hertz, UK) containing 5% of fetal calf serum (FCS) (HyClone, ST, Utah, USA) at a final concentrazione of 10^7 cells/ml, and incubated in 96-well plates for 24 hours at 37° C. in the presence of the tested compounds at the indicated concentration. At the end of the incubation the supernatant was collected, filtered by […] filter and freezed to -80° C. until the time of the test carried out by ELISA commercial kit (Genzyme, Boston, Mass., USA).

Leishmania major = experiment: Effect on the leishmanicidal activity of murine peritoneal macrophage (3H-thymidine incorporation); type: cell-based; settings: for 3H-thymidine incorporation by living parasites, cpm (counts per minute): 24 hours pre-incubation of macrophages, control 18,273; for % reduciton of infection: versus control
Description: Effect on the leishmanicidal activity of murine peritoneal macrophage
The peritoneal cells collected as described above were seeded in 96-well flat bottom plates (Nunc, Roskiled, DK) at a concentration of 10^5 /100 μl; and incubated per 24 hours at 37° C. At the end of the treatment, the cells not adherent to the well were separated and discharged, whereas the adherent cells were washed three time with culture medium and incubated for 24 hours with the compounds in question, then the cells were infected through a 24 hours incubation with promastigotes of Leishmania major (L. major, PVL49 strain supplied by Dr. Neal R. A., London School of Hygiene and Tropical Medicine, London, UK). At the end of the infection treatment each well was added with 100 μl of a 0.01% solution od sodium dodecylsulphate in RPMI 1640, and the plates were incubated for 30 minutes at 37° C. The Schneider's culture medium (Schneider Drosophila medium, Gibco Lab., Grand island, N.Y., USA) with 30% of FCS was added. Each well was added with 1 μCi of ^3 H-thymidine, and a 72 hours incubation was carried out at 37° C. The incorporation of radioactivity by the living parasites inside the peritoneal cells, which is correlated to the infection degree and consequently to the leishmanicidal activity of the cells, was measured by collecting the cells by means of a cell-harvester and measuring the radioactivity with liquid scintillation β-counter.

[1] = tested on: BALB/C mice inoculated with LPS; experiment: In vivo protection against septic shock (LPS-inoculated mice); settings: LPS 50 mg/kg intraperitoneally, checked for 8 days
Description: Evaluation of the in vivo protection against septic shock
BALB/C mice (6 mice/group) weighting between 20 and 25 g, were intraperitoneally inoculated with 50 mg/kg of LPS (lipopolysaccharide-Sigma). The groups, except for the control, were inoculated with increasing doses of one of the compounds of the invention dissolved in physiologic solution having a final volume of 0.5 ml, at time 0 (i.e. together with LPS) or 30 minutes after the LPS inoculation. The mice were checked for 8 days to determined the survival percentage. Compound of Example 1 yields a survival percentage of about 65% at doses of 6.2 ug/mouse and 0.62 ug/mouse, and its isomer B yields a survival percentage of about 80% at a dose of 6.25 ug/mouse and of 75% at a dose of 62.5 ug/mouse.

[2] = tested on: murine peritoneal macrophages; experiment: Stimulation of IL-1 production by murine peritoneal macrophages (ELISA); type: cell-based, BALB/C mice; settings: 96 hours; for IL-1 production, Stimulation index: with respect to control; for IL-1 production, U/ml: control 15
Text: Stimulation of IL-1 production by murine peritoneal macrophages
Murine peritoneal macrophages were obtained by inoculation of a solution of hydrolized starch (BDH Chemicals, Poole, Dorset, UK) into the peritoneal cavity of BALB/C. mice, three days before sacrificing the animals. The peritoneal cells were then collected by washing the peritoneal cavity with a solution of RPMI 1640 containing 10% of FCS, and resuspended in the same solution at a concetration of 10^6 cells/ml in 96-well plates. The incubation was performed for 96 hours at 37° C. in the presence of the compounds in question. At the end of the treatment the supernatants were collected and used for dosing cytokine by means of a suitable ELISA commerical kit (Genzyme, Boston, Mass., USA).

murine peritoneal cells = experiment: Stimulation of the nitric oxide by murine peritoneal cells (chemiluminescence); type: cell-based, BALB/C mice; settings: with lipopolysaccharide 30 μg/ml, 96 hours; for nitric oxide, Stimulation index: with respect to control; for nitric oxide content: control 20
Description: Stimulation of the nitric oxide by murine peritoneal cells
The peritoneal cells were obtained as described in the previous test, and incubated for 96 hours at 37° C. in the presence of the compounds in question and of lipopolysaccharide at a concentration of 30 μg/ml. At the end of the treatment the supernatants were collected and the nitric oxide content was determined by the chemiluminescence test described by Palmer R. M. J. et al, Nature, 327, 524, 1987.

Row | Compound | IFN-.tau. production, Stimulation index (murine splenocytes; 0.1 μg/ml) | IFN-.tau. production, U/ml (murine splenocytes; 0.1 μg/ml) [U/ml] | IFN-.tau. production, Stimulation index (murine splenocytes; 1.0 μg/ml) | IFN-.tau. production, U/ml (murine splenocytes; 1.0 μg/ml) [U/ml] | IFN-.tau. production, Stimulation index (murine splenocytes; 10.0 μg/ml) | IFN-.tau. production, U/ml (murine splenocytes; 10.0 μg/ml) [U/ml] | 3H-thymidine incorporation by living parasites, cpm (counts per minute) (Leishmania major; 0.1 μg/ml) | % reduciton of infection (Leishmania major; 0.1 μg/ml) | 3H-thymidine incorporation by living parasites, cpm (counts per minute) (Leishmania major; 1.0 μg/ml) | % reduciton of infection (Leishmania major; 1.0 μg/ml) [%] | 3H-thymidine incorporation by living parasites, cpm (counts per minute) (Leishmania major; 10.0 μg/ml) | % reduciton of infection (Leishmania major; 10.0 μg/ml) [%] | IL-1 production, Stimulation index ([2]; 0.01 μg/ml) | IL-1 production, U/ml ([2]; 0.01 μg/ml) [U/ml] | IL-1 production, Stimulation index ([2]; 0.1 μg/ml) | IL-1 production, U/ml ([2]; 0.1 μg/ml) [U/ml] | IL-1 production, Stimulation index ([2]; 1.0 μg/ml) | IL-1 production, U/ml ([2]; 1.0 μg/ml) [U/ml] | IL-1 production, Stimulation index ([2]; 10.0 μg/ml) | IL-1 production, U/ml ([2]; 10.0 μg/ml) [U/ml] | other results
1 | N=C(N)NCCC[C@H](NC(=O)[C@@H]1CCCN1C(=O)C(CCCCN)C(=O)NCN)C(=O)O (single isomer, unassigned) [Ex.1] | 1.1 | 33 | 1.9 | 60 | 1.6 | 49 | 5,096 cpm | over 70% | 3,783 cpm | 79 | 4,292 cpm | 77 | 0.4 | 6 | 0.1 | 2 | 0.1 | 2 | 0.1 | 2 | IFN-.tau. production, Stimulation index (murine splenocytes; 1.0 μg/ml, listed as example 1): doubled; stimulation of IFN-.tau. production, result in words (murine splenocytes; 0.1 to 10.0 μg/ml): the most powerful one of the present class; % reduciton of infection (Leishmania major; 0.1 μg/ml, listed as Es. 1): 72%; reduction of the infection degree, result in words (Leishmania major; 0.1 to 10.0 μg/ml): the utmost effective; survival percentage ([1]; 0.62 ug/mouse): about 65%; survival percentage ([1]; 6.2 ug/mouse): about 65%; nitric oxide, Stimulation index (murine peritoneal cells; 0.01 μg/ml): 2.2; nitric oxide content (murine peritoneal cells; 0.01 μg/ml): 43 nmol/mL; nitric oxide, Stimulation index (murine peritoneal cells; 0.1 μg/ml): 3.0; nitric oxide content (murine peritoneal cells; 0.1 μg/ml): 59 nmol/mL; nitric oxide, Stimulation index (murine peritoneal cells; 1.0 μg/ml): 3.9; nitric oxide content (murine peritoneal cells; 1.0 μg/ml): 77 nmol/mL; nitric oxide, Stimulation index (murine peritoneal cells; 10.0 μg/ml): 2.9; nitric oxide content (murine peritoneal cells; 10.0 μg/ml): 57 nmol/mL
2 | N=C(N)NCCC[C@H](NC(=O)[C@@H]1CCCN1C(=O)C(CCCCN)C(=O)NCN)C(=O)O (single isomer, unassigned) [isomer B] |  |  |  |  |  |  |  |  |  |  |  |  |  |  |  |  |  |  |  |  | survival percentage ([1]; 6.25 ug/mouse): about 80%; survival percentage ([1]; 62.5 ug/mouse): 75%
3 | H-gThr-(R,S)mLys-Pro-Gln-OH.AcOH [Ex.3] | 1.5 | 60 | 1.5 | 60 | 1.7 | 68 | 18,826 cpm | -3% | 8,377 cpm | 54 | 7,842 cpm | 57 | 10.0 | 150 | 10.7 | 160 | 10.3 | 155 | 9.3 | 140 | nitric oxide, Stimulation index (murine peritoneal cells; 0.01 μg/ml): 2.5; nitric oxide content (murine peritoneal cells; 0.01 μg/ml): 50 nmol/mL; nitric oxide, Stimulation index (murine peritoneal cells; 0.1 μg/ml): 3.0; nitric oxide content (murine peritoneal cells; 0.1 μg/ml): 60 nmol/mL; nitric oxide, Stimulation index (murine peritoneal cells; 1.0 μg/ml): 3.3; nitric oxide content (murine peritoneal cells; 1.0 μg/ml): 66 nmol/mL; nitric oxide, Stimulation index (murine peritoneal cells; 10.0 μg/ml): 4.4; nitric oxide content (murine peritoneal cells; 10.0 μg/ml): 88 nmol/mL
4 | H-gThr-R,S)mLys-Pro-LeU-OH.AcOH [Ex.2] | 1.8 | 57 | 1.7 | 52 | 1.9 | 60 | 17,568 cpm | 4% | 11,991 cpm | 34 | 10,582 cpm | 42 | 6.0 | 90 | 4.0 | 60 | 3.1 | 47 | 3.3 | 50 | nitric oxide, Stimulation index (murine peritoneal cells; 0.01 μg/ml): 4.3; nitric oxide content (murine peritoneal cells; 0.01 μg/ml): 85 nmol/mL; nitric oxide, Stimulation index (murine peritoneal cells; 0.1 μg/ml): 3.1; nitric oxide content (murine peritoneal cells; 0.1 μg/ml): 61 nmol/mL; nitric oxide, Stimulation index (murine peritoneal cells; 1.0 μg/ml): 3.3; nitric oxide content (murine peritoneal cells; 1.0 μg/ml): 66 nmol/mL; nitric oxide, Stimulation index (murine peritoneal cells; 10.0 μg/ml): 4.0; nitric oxide content (murine peritoneal cells; 10.0 μg/ml): 79 nmol/mL
